Legend:
in vitro [1] = conditions: human, plasma, pH 7.4
Description: Fraction unbound (%) in human plasma at pH 7.4 after 18 hrs by equilibrium dialysis

in vitro [2] = conditions: dog, plasma, pH 7.4
Description: Fraction unbound (%) in dog plasma at pH 7.4 after 18 hrs by equilibrium dialysis

[3] = Fraction unbound (%) in mouse plasma at pH 7.4 after 18 hrs by equilibrium dialysis; assay type: ADME, cell-free
in vitro [4] = conditions: rat, plasma, pH 7.4
Description: Fraction unbound (%) in rat plasma at pH 7.4 after 18 hrs by equilibrium dialysis

Plasma [5] = assay: Fraction unbound (%) in human plasma in phosphate buffer after 30 mins by liquid scintillation counting; assay type: ADME, cell-free; conditions: 0.5 h
Plasma [6] = assay: Fraction unbound (%) in rat plasma in phosphate buffer after 30 mins by liquid scintillation counting; assay type: ADME, cell-free; conditions: 0.5 h

SMILES	fraction unbound at 18 h (in vitro [1])	fraction unbound at 18 h (in vitro [2])	fraction unbound at 18 h [3]	fraction unbound at 18 h (in vitro [4])	Fu (Plasma [5]) [%]	Fu (Plasma [6]) [%]
CCCc1nn(C)c2c(=O)[nH]c(-c3cc(S(=O)(=O)N4CCN(C)CC4)ccc3OCC)nc12	0.064	0.26				
CC[C@@H](c1ccccc1)c1c(O)c2ccccc2oc1=O	0.007		0.11			
CO[C@@]1(NC(=O)C2SC(=C(C(N)=O)C(=O)O)S2)C(=O)N2C(C(=O)O)=C(CSc3nnnn3C)CS[C@@H]21 (stereo partly specified) [CEFOTETAN]	0.09	0.61		0.7		
Cc1cc(O)c(C(=O)N[C@@H](C(=O)N[C@@H]2C(=O)N3C(C(=O)O)=C(CSc4nnnn4C)CS[C@H]23)c2ccc(O)cc2)cn1 [CEFPIRAMIDE]	0.09	0.6				
COc1cc([C@@H]2c3cc4c(cc3[C@@H](O[C@@H]3O[C@@H]5CO[C@@H](C)O[C@H]5[C@H](O)[C@H]3O)[C@H]3COC(=O)[C@H]23)OCO4)cc(OC)c1O [ETOPOSIDE]	0.049	0.63		0.52		
O=c1[nH]c2ccccc2n1C1CCN(CCCC(c2ccc(F)cc2)c2ccc(F)cc2)CC1 [PIMOZIDE]	0.0016	0.0004				
CCOc1ccccc1OCCN[C@H](C)Cc1ccc(OC)c(S(N)(=O)=O)c1 [TAMSULOSIN]				0.2	1	20
CCCC(CCC)C(=O)O [VALPROIC ACID]	0.052			0.88		
c1ccc(C(O[C@@H]2CCCN(CCc3ccc4c(c3)OCO4)C2)c2ccccc2)cc1 [ZAMIFENACIN]	0.0001			0.002		
